Measurements: article PMC7979765, “trans-Translation inhibitors bind to a novel site on the ribosome and clear Neisseria gonorrhoeae in vivo” (Nature Communications, 2021)
Values after ≈ are worked out from the molar mass of the structure shown. Values joined by “and” are separate entries in the source; they are usually repeats but may differ in a detail not shown here. Equal entries are not always repeated. Where two headings read alike, the source gives them in different places.

Assays:
Staphylococcus aureus = test: MIC, microbroth dilution; format: cell-based
Escherichia coli = test: microbe, parasite or virus in culture; format: cell-based
[1] = Aqueous solubility (nephelometric); format: physicochemical; details: aqueous solution (buffer not named); single replicates
[2] = Serum protein binding, murine; format: in vitro ADME, mouse; details: mouse, serum, murine serum; read-out: murine serum binding (% bound)
Method: Serum protein binding was determined using an equilibrium dialysis method as described. The amount of compound in each chamber (buffer and serum) was measured using methods for reverse-phase liquid chromatography/mass spectroscopy methods that were customized for each compound.

trans-translation = test: microbe, parasite or virus in culture; format: cell-based, Escherichia coli; details: for Luminescence readout (Envision plate reader) / Luminescence, background subtracted (DMSO control): per replicate
[3] = Liver microsome stability, murine; format: in vitro ADME, mouse
Summary of the method: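 Compounds incubated with liver microsomes plus NADPH over 30 min; parent remaining quantified by reverse-phase LC/MS. Half-life from linear regression over several time points.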

Klebsiella pneumoniae = test: MIC, microbroth dilution; format: cell-based
Acinetobacter baumannii = test: MIC, microbroth dilution; format: cell-based
[4] = [Compound] 0.0625 µM, listed as MBX-3535
[5] = [Compound] 0.125 µM, listed as MBX-3535
[6] = [Compound] 0.1875 µM, listed as MBX-3535
[7] = [Compound] 0.25 µM, listed as MBX-3535
[8] = [Compound] 0.375 µM, listed as MBX-3535
[9] = [Compound] 0.5 µM, listed as MBX-3535
[10] = [Compound] 0.75 µM, listed as MBX-3535
[11] = [Compound] 1 µM, listed as MBX-3535
[12] = [Compound] 1.5 µM, listed as MBX-3535

## O=C(Nc1nnc(-c2ccc(F)cc2)o1)c1ccc(Cl)cc1 [KKL-35, 4-chloro-N-(5-(4-fluorophenyl)-1,3,4-oxadiazol-2-yl)benzamide]
Staphylococcus aureus; Staphylococcus aureus ATCC 25923, replicates
  MIC: 1 µg/mL (≈ 3.15 µM)
Staphylococcus aureus; Staphylococcus aureus ATCC 35556, replicates
  MIC: 1 µg/mL (≈ 3.15 µM)
Staphylococcus aureus; Staphylococcus aureus BAA-1717, replicates
  MIC: 1 µg/mL (≈ 3.15 µM)
Staphylococcus aureus; Staphylococcus aureus MRSA-1094, replicates
  MIC: 1 µg/mL (≈ 3.15 µM)
Staphylococcus aureus; Staphylococcus aureus MRSA-1234547263, replicates
  MIC: 1 µg/mL (≈ 3.15 µM)
Staphylococcus aureus; Staphylococcus aureus MSSA, replicates
  MIC: 1 µg/mL (≈ 3.15 µM)
Staphylococcus aureus; Staphylococcus aureus N315, NRS-70, replicates
  MIC: 1 µg/mL (≈ 3.15 µM)
Staphylococcus aureus; Staphylococcus aureus NRS-77, replicates
  MIC: 1 µg/mL (≈ 3.15 µM)
Staphylococcus aureus; Staphylococcus aureus THC1516, replicates
  MIC: 1 µg/ml (4×) and 0.5 µg/ml
Staphylococcus aureus; Staphylococcus aureus, ATCC25923, Staphylococcus aureus ATCC 25923, replicates, read-out: MIC
  MIC: 1 µg/mL (≈ 3.15 µM)
Staphylococcus aureus; Staphylococcus aureus, ATCC25923, strain ATCC 25923, read-out: MIC
  MIC: 1 µg/mL (≈ 3.15 µM)
Staphylococcus aureus; Staphylococcus aureus, ATCC35556, Staphylococcus aureus ATCC 35556, replicates, read-out: MIC
  MIC: 1 µg/mL (≈ 3.15 µM)
Staphylococcus aureus; Staphylococcus aureus, ATCC35556, strain ATCC 35556, read-out: MIC
  MIC: 1 µg/mL (≈ 3.15 µM)
Staphylococcus aureus; Staphylococcus aureus, BAA1717, Staphylococcus aureus BAA-1717, replicates, read-out: MIC
  MIC: 1 µg/mL (≈ 3.15 µM)
Staphylococcus aureus; Staphylococcus aureus, BAA-1717 / MRSA, strain BAA-1717, MRSA, read-out: MIC
  MIC: 1 µg/mL (≈ 3.15 µM)
Staphylococcus aureus; Staphylococcus aureus, MRSA / NRS 70, strain N315, NRS-70, MRSA, read-out: MIC
  MIC: 1 µg/mL (≈ 3.15 µM)
Staphylococcus aureus; Staphylococcus aureus, MRSA, Staphylococcus aureus MRSA-1094, replicates, read-out: MIC
  MIC: 1 µg/mL (≈ 3.15 µM)
Staphylococcus aureus; Staphylococcus aureus, MRSA, Staphylococcus aureus MRSA-1234547263, replicates, read-out: MIC
  MIC: 1 µg/mL (≈ 3.15 µM)
Staphylococcus aureus; Staphylococcus aureus, MRSA, strain MRSA-1094, MRSA, read-out: MIC
  MIC: 1 µg/mL (≈ 3.15 µM)
Staphylococcus aureus; Staphylococcus aureus, MRSA, strain MRSA-1234547263, MRSA, read-out: MIC
  MIC: 1 µg/mL (≈ 3.15 µM)
Staphylococcus aureus; Staphylococcus aureus, MRSA, strain THC1516, MRSA, read-out: MIC
  MIC: 0.9 µg/mL (≈ 2.83 µM)
Staphylococcus aureus; Staphylococcus aureus, MSSA, Staphylococcus aureus MSSA, replicates, read-out: MIC
  MIC: 1 µg/mL (≈ 3.15 µM)
Staphylococcus aureus; Staphylococcus aureus, MSSA, strain MSSA, read-out: MIC
  MIC: 1 µg/mL (≈ 3.15 µM)
Staphylococcus aureus; Staphylococcus aureus, NRS70, Staphylococcus aureus N315, NRS-70, replicates, read-out: MIC
  MIC: 1 µg/mL (≈ 3.15 µM)
Staphylococcus aureus; Staphylococcus aureus, NRS77, Staphylococcus aureus NRS-77, replicates, read-out: MIC
  MIC: 1 µg/mL (≈ 3.15 µM)
Staphylococcus aureus; Staphylococcus aureus, NRS77, strain NRS-77, read-out: MIC
  MIC: 1 µg/mL (≈ 3.15 µM)
Staphylococcus aureus; Staphylococcus aureus, Staphylococcus aureus THC1516, replicates, read-out: MIC
  MIC: 1 µg/mL (≈ 3.15 µM)
Escherichia coli; Escherichia coli KLE700, replicates
  MIC: ≥32 µg/mL
Escherichia coli; Escherichia coli KLE701 (ΔtolC), replicates
  MIC: 0.50 µg/mL (≈ 1.57 µM)
Escherichia coli; Escherichia coli, E. coli KLE701 (ΔtolC::tet), source data, individual replicates
  MIC: 0.496 µg/mL (≈ 1.56 µM)
Escherichia coli; Escherichia coli, Escherichia coli KLE700, replicates, read-out: MIC
  MIC: ≥ 32 µg/mL
Escherichia coli; Escherichia coli, Escherichia coli KLE701 (ΔtolC), replicates
  MIC: 0.5 µg/mL (≈ 1.57 µM)
Escherichia coli; Escherichia coli, strain KLE700, read-out: MIC
  MIC: ≥ 32 µg/mL
Escherichia coli; Escherichia coli, strain KLE701, KLE700 ΔtolC::tet
  MIC: 0.5 µg/mL (≈ 1.57 µM)
[1]
  Solubility: 6.3 µM (≈ 2 µg/mL)
[2]
  fraction unbound: < 0.01
trans-translation; Eco Luc reporter, one value per replicate, listed as MBX-3535, read-out: IC50
  IC50: 138 nM and 152 nM
trans-translation; Escherichia coli, E. coli non-stop luciferase reporter, Fig. 1B, read-out: in vivo luc-trpAt IC50
  IC50: 100 nM
trans-translation; Escherichia coli, Eco Luc reporter, one value per replicate, read-out: IC50
  IC50: 156 nM
trans-translation; [Compound] 0.046875 µM, listed as MBX-3535
  Luminescence readout (Envision plate reader): 793720 and 792160 and 789800
trans-translation; [4]
  Luminescence readout (Envision plate reader): 778080 and 758560 and 769120
  Luminescence, background subtracted (DMSO control): -25080 and -11160 and -10320
trans-translation; [Compound] 0.09375 µM, listed as MBX-3535
  Luminescence readout (Envision plate reader): 796160 and 783440 and 809640
trans-translation; [5]
  Luminescence readout (Envision plate reader): 838680 and 824680 and 839280
  Luminescence, background subtracted (DMSO control): 35520 and 54960 and 59840
trans-translation; [6]
  Luminescence readout (Envision plate reader): 931120 and 911280 and 917880
  Luminescence, background subtracted (DMSO control): 127960 and 141560 and 138440
trans-translation; [7]
  Luminescence readout (Envision plate reader): 975560 and 925440 and 953800
  Luminescence, background subtracted (DMSO control): 172400 and 155720 and 174360
trans-translation; [8]
  Luminescence readout (Envision plate reader): 918760 and 868800 and 899520
  Luminescence, background subtracted (DMSO control): 115600 and 99080 and 120080
trans-translation; [9]
  Luminescence readout (Envision plate reader): 894760 and 832920 and 864960
  Luminescence, background subtracted (DMSO control): 91600 and 63200 and 85520
trans-translation; [10]
  Luminescence readout (Envision plate reader): 938080 and 885720 and 902440
  Luminescence, background subtracted (DMSO control): 134920 and 116000 and 123000
trans-translation; [11]
  Luminescence readout (Envision plate reader): 1090520 and 985400 and 1035440
  Luminescence, background subtracted (DMSO control): 287360 and 215680 and 256000
trans-translation; [12]
  Luminescence readout (Envision plate reader): 1101720 and 996520 and 1037480
  Luminescence, background subtracted (DMSO control): 298560 and 226800 and 258040
[3]
  liver microsome stability (in words): rapidly hydrolyzed
[3]; mouse, murine liver microsomes, read-out: MMS / Microsomal Stability (t1/2), murine
  half-life: < 5 min
[3]; murine liver microsomes, average of replicates
  Average MLMS t½: <5 min
[3]; murine liver microsomes, individual replicates
  MLMS t½: <5 min
Klebsiella pneumoniae; Klebsiella pneumoniae ATCC 13883, replicates
  MIC: ≥32 µg/mL
Klebsiella pneumoniae; Klebsiella pneumoniae, ATCC13883, strain ATCC 13883, read-out: MIC
  MIC: ≥ 32 µg/mL
Acinetobacter baumannii; Acinetobacter baumannii ATCC 19606, replicates
  MIC: ≥32 µg/mL
Acinetobacter baumannii; Acinetobacter baumannii, ATCC19606, Acinetobacter baumannii ATCC 19606, replicates, read-out: MIC
  MIC: ≥ 32 µg/mL
Acinetobacter baumannii; Acinetobacter baumannii, ATCC19606, strain ATCC 19606, read-out: MIC
  MIC: > 32 µg/mL
